Here are results for 39 compounds from patent US20240002388A1, “PYRIMIDINONE COMPOUNDS AND USES THEREOF” (HUTCHISON MEDIPHARMA LIMITED, priority 2020, published 2024).

pIC50: −log10 of the molar value.

The test system of this assay is U937 cell line (human histiocytic lymphoma cell line). Kind of assay: U937 cell viability assay (TNF-α + Z-VAD-FMK induced necroptosis). The format is cell-based. The conditions noted are these: Homo sapiens, U-937; U937 cells, hTNF-α 0.1 μg/mL + Z-VAD-FMK 50 μM, 20 hours, CellTiter-Glo. As to the method:
U937 cell line (human histiocytic lymphoma cell line): purchased from ATCC (American Type Culture Collection) Cell Bank, cultured in a 5% CO2, 37° C. incubator, and RPMI 1640 medium which contains L-glutamine, 1.5 g/L sodium bicarbonate, 2.383 g/L HEPES solution, 0.11 g/L sodium pyruvate and 4.5 g/L glucose, plus 10% fetal bovine serum (FBS) was used. • RPMI 1640 medium: GIBCO, Cat #A10491-01; • Fetal bovine serum (FBS): GIBCO, Cat #10099-141C; • Dimethyl sulfoxide (DMSO): Sigma, Cat #D2650; • Recombinant Human TNF-alpha Protein (hTNF-α): R&D system, Cat #210-TA-100; • Pan-Caspase inhibitor (Z-VAD-FMK): Selleckchem, Cat #S7023; • CellTiter-Glo 2.0 Cell Viability Assay kit: Promega, Cat #G9242; • Microwell plate reader: Envision, Perkin Elmer; • 96-well plate: Corning, Cat #3917.
The U937 cells at the logarithmic phase were taken out, centrifuged to remove the medium, washed with PRMI 1640 medium containing 1% FBS, and diluted with 1% FBS-containing RPMI 1640 medium to 2.5×10^5 cells/ml, inoculated at 70 μL/well into a 96-well plate, i.e., 1.75×10^4 cells/well. The plate was cultured in a 5% CO2, 37° C. cell incubator. After incubating for 1 hour, the test compound was diluted to the corresponding concentrations using DMSO with 3-fold serial dilution, then the corresponding concentration of DMSO diluted solution was diluted into 1% FBS-containing RPMI 1640 medium, and 10 μL/well of the diluted test compound with different concentrations (final concentration of test compound was 1.0, 0.333, 0.111, 0.037, 0.012, 0.004, 0.0014 and 0.0005 μM, while final concentration of DMSO was 0.3%) or 10 μL/well control solution (3% DMSO) were added to the cell culture system respectively, with the total volume being 80 μL/well; Then 10 μL of Z-VAD-FMK solution diluted with 1% FBS-containing RPMI 1640 medium (final concentration of 50 μM) or 10 μL of control solution (2.5% DMSO) was added to each well, with the total volume being 90 μL/well. The plate was incubated in a 5% CO2, 37° C. cell culture incubator for 1 hour.
After being cultured for 1 hour, 10 μL of human recombinant TNF-α protein diluted with 1% FBS-containing RPMI 1640 medium (final concentration of 0.1 μg/mL) or 10 μL/well control solution (1% FBS-containing RPMI 1640 medium) was added to each well. The plate was incubated in a 5% CO2, 37° C. cell culture incubator for 20 hours.
The cell culture plate was taken out from the incubator, and left to stand at room temperature for 30 minutes. Meanwhile, CellTiter-Glo viability assay kit was put from freezer to room temperature, and 50 μL of CellTiter-Glo reagent was added to all wells, the plate was shaken for 1 minutes, protected from light at room temperature for 10 minutes then read the plate on Envision to get the luminescence signal.
The 96-well plate in the dark was taken out, and the chemiluminescence was determined using the Envision microwell plate reader as the signal value of each well.
The mean signal value of the wells of the mixed solution of recombinant human TNF-alpha protein (final concentration of 0.1 μg/mL) and Pan-Caspase inhibitor (final concentration of 50 μM) was used as the lower value, and the mean signal value of the wells without stimulation was used as the upper value. According to the signal value of each well, the inhibition rate of each concentration of every compound was calculated, and the IC50 value of compound was obtained by Model 205 in XL-Fit 5.3 software (ID Business Solutions Limited).
Inhibition rate %=[(Luminescence readout of treated compound−Luminescence readout of positive control)/(Luminescence readout of negative control−Luminescence readout of positive control)]×100%, wherein
In general terms: In ATP-based viability assays light output follows the ATP content of the culture.
What is called pIC50 is −log10 of the IC50, conventionally taken in molar units. Regarding `CC(C)n1ncc2cnc(C(=O)NC3(c4ccc(-c5cncn(C)c5=O)c(F)c4)CC3)nc21` [Compound 23, N-(1-(3-fluoro-4-(1-methyl-6-oxo-1,6-dihydropyrimidin-5-yl)phenyl)cyclopropyl)-1-isopropyl-1H-pyrazolo[3,4-d]pyrimidine-6-carboxamide], the pIC50 is 7.24.

As to `CC(C)n1cncc(-c2ccc(C3(NC(=O)c4ncc5cnn([C@H](C)C6CC6)c5n4)CC3)cc2)c1=O` [Compound 89, (R)-1-(1-cyclopropylethyl)-N-(1-(4-(1-i-propyl-6-oxo-1,6-dihydropyrimidin-5-yl)phenyl)cyclopropyl)-1H-pyrazolo[3,4-d]pyrimidine-6-carboxamide], the pIC50 is 8.30.

For `CC(C)n1ncc2cnc(C(=O)NC3(c4ccc(-c5cncn(CC6CC6)c5=O)cc4)CC3)nc21` [Compound 36], the pIC50 was 8.52.

Consider `CC(C)n1cncc(-c2ccc(C3(NC(=O)c4ncc5cnn(C(C)C)c5n4)CC3)cc2Cl)c1=O` [Compound 33], for which the negative logarithm of the IC50 (pIC50) was 8.00.

`Cn1cncc(-c2ccc(C3(NC(=O)c4nnc(Cc5c(F)cccc5F)[nH]4)CC3)cc2)c1=O` [Compound 18]: the pIC50 is 7.09.

In the case of `CCn1cncc(-c2ccc(C3(NC(=O)c4ncc5cnn(C(C)C)c5n4)CC3)cc2)c1=O` [Compound 37], the pIC50 is 7.85.

With `CC(C)n1ncc2cnc(C(=O)NC3(c4ccc(-c5cncn(C)c5=O)c(Cl)c4)CC3)nc21` [Compound 25], the pIC50 was 7.49.

Consider `CC(C)n1cncc(-c2ccc(C3(NC(=O)c4ncc5cnn(CC6CC6)c5n4)CC3)cc2)c1=O` [Compound 61], for which the pIC50 was 8.52.

Take `CC(C)n1cncc(-c2ccc(C3(NC(=O)c4ncc5cnn(C6COC6)c5n4)CC3)cc2)c1=O` [Compound 60]: the pIC50 is 7.18.

On to `CC(C)n1ncc2cnc(C(=O)NC3(c4ccc(-c5cncn(C6COC6)c5=O)cc4)CC3)nc21` [Compound 41], for which the pIC50 was 7.19.

As to `CC(C)n1ncc2cnc(C(=O)NC3(c4ccc(-c5cncn(C)c5=O)cn4)CC3)nc21` [Compound 2], the pIC50 was 6.77.

For the compound `Cn1cncc(-c2ccc(C3(NC(=O)c4cc(Cc5ccccc5)on4)CC3)cc2)c1=O` [Compound 5], the pIC50 was 7.62.

Regarding `CC(C)n1ncc2cnc(C(=O)NC3(c4ccc(-c5cncn([C@H](C)C(F)(F)F)c5=O)cc4)CC3)nc21` [Compound 39], the pIC50 is 8.22.

As for `CC(C)n1ncc2cnc(C(=O)NC3(c4ccc(-c5cncn([C@@H]6C[C@@H]6F)c5=O)cc4)CC3)nc21` [Compound 69], the pIC50 is 8.05.

As for `Cn1cncc(-c2ccc(C3(NC(=O)c4nnc(Cc5ccccc5)o4)CC3)cc2)c1=O` [Compound 11], the pIC50 is 6.86.

With `Cn1cncc(-c2ccc(C3(NC(=O)c4nc5n(n4)[C@@H](c4ccccc4)CC5)CC3)cc2)c1=O` [Compound 54, (R)—N-(1-(4-(1-methyl-6-oxo-1,6-dihydropyrimidin-5-yl)phenyl)cyclopropyl)-5-phenyl-6,7-dihydro-5H-pyrrolo[1,2-b][1,2,4]triazole-2-carboxamide], the pIC50 was 7.92.

With `CC(C)n1cncc(-c2ccc(C3(NC(=O)c4nc5n(n4)[C@@H](c4ccccc4)CC5)CC3)cc2)c1=O` [Compound 15], the negative-log IC50 (pIC50) was 7.70.

As to `Cn1cncc(-c2ccc(C3(NC(=O)c4noc(Cc5ccccc5)n4)CC3)cc2)c1=O` [Compound 9], the pIC50 is 7.28.

Regarding `CC(C)n1ncc2cnc(C(=O)NC3(c4ccc(-c5cncn(C6CC(F)(F)C6)c5=O)cc4)CC3)nc21` [Compound 65], the pIC50 was 8.15.

With `CC(C)n1ncc2cnc(C(=O)NC3(c4ccc(-c5cncn(CC6CCC6)c5=O)cc4)CC3)nc21` [Compound 66], the pIC50 is 8.52.

In the case of `Cn1cncc(-c2ccc(C3(NC(=O)c4nnc(Cc5ccccc5)[nH]4)CC3)cc2)c1=O` [Compound 3], the pIC50 is 7.68.

Take `CC(C)n1ncc2cnc(C(=O)NC3(c4ccc(-c5cncn(C6(C)CCC6)c5=O)cc4)CC3)nc21` [Compound 79]: the pIC50 was 8.70.

As for `CC(C)n1ncc2cnc(C(=O)NC3(c4ccc(-c5cncn(C)c5=O)cc4)CC3)cc21` [Compound 28, 1-isopropyl-N-(1-(4-(1-methyl-6-oxo-1,6-dihydropyrimidin-5-yl)phenyl)cyclopropyl)-1H-pyrazolo[4,3-c]pyridine-6-carboxamide], the pIC50 is 6.87.

Consider `C[C@H](n1cncc(-c2ccc(C3(NC(=O)c4ncc5cnn(CC6CC6)c5n4)CC3)cc2)c1=O)C(F)(F)F` [Compound 68], for which the pIC50 was 8.22.

Turning to `CC(C)n1cncc(-c2ccc(C3(NC(=O)c4ncc5cnn(-c6ccccn6)c5n4)CC3)cc2)c1=O` [Compound 63], the pIC50 is 7.29.

Take `C[C@@H](n1cncc(-c2ccc(C3(NC(=O)c4ncc5cnn(CC6CC6)c5n4)CC3)c(F)c2)c1=O)C(F)(F)F` [Compound 76]: the pIC50 is 8.52.

For the compound `CC(C)n1cncc(-c2ccc(C3(NC(=O)c4ncc5cnn(C(C)C)c5n4)CC3)cc2F)c1=O` [Compound 35], the pIC50 is 7.96.

Turning to `CC(C)Cc1nc(C(=O)NC2(c3ccc(-c4cncn(C)c4=O)cc3)CC2)ncc1Cl` [Compound 6], the pIC50 is 7.68.

As to `CC[C@H](C)n1cncc(-c2ccc(C3(NC(=O)c4ncc5cnn(C(C)C)c5n4)CC3)cc2)c1=O` [Compound 43], the pIC50 is 8.70.

Turning to `CC(C)n1cncc(-c2ccc(C3(NC(=O)c4ncc5cnn(CC6CCC6)c5n4)CC3)cc2)c1=O` [Compound 62], the negative-log IC50 (pIC50) was 8.70.

Take `CC(C#N)n1cncc(-c2ccc(C3(NC(=O)c4ncc5cnn(C(C)C)c5n4)CC3)cc2)c1=O` (stereo in doubt) [Compound 82, (R)—N-(1-(4-(1-(1-cyanoethyl)-6-oxo-1,6-dihydropyrimidin-5-yl)phenyl)cyclopropyl)-1-i-propyl-1H-pyrazolo[3,4-d]pyrimidine-6-carboxamide]: the pIC50 is 7.74.

In the case of `CC(C)n1ncc2cnc(C(=O)NC3(c4ccc(-c5cncn(CC6CC6)c5=O)cc4F)CC3)nc21` [Compound 74], the pIC50 is 9.00.

Regarding `CC(C)n1ncc2cnc(C(=O)NC3(c4ccc(-c5cncn([C@@H](C)C(F)(F)F)c5=O)cc4F)CC3)nc21` (stereo in doubt) [Compound 47], the pIC50 is 8.70.

Turning to `CC(C)n1ncc2cnc(C(=O)NC3(c4ccc(-c5cncn(CC(F)(F)F)c5=O)cc4)CC3)nc21` [Compound 38], the pIC50 was 7.89.

Consider `C[C@@H](n1cncc(-c2ccc(C3(NC(=O)c4ncc5cnn(CC6CC6)c5n4)CC3)cc2)c1=O)C(F)(F)F` [Compound 70], for which the pIC50 is 8.70.

For `CC(C)n1cncc(-c2ccc(C3(NC(=O)c4ncc5cnn(C(C)C)c5n4)CC3)cc2)c1=O` [Compound 29, 1-isopropyl-N-(1-(4-(1-isopropyl-6-oxo-1,6-dihydropyrimidin-5-yl)phenyl)cyclopropyl)-1H-pyrazolo[3,4-d]pyrimidine-6-carboxamide], the pIC50 is 8.52.

Turning to `CC(C)n1cncc(-c2ccc(C3(NC(=O)c4ncc5cnn(C(C)C6CC6)c5n4)CC3)cc2)c1=O` (racemic) [Compound 59, 1-(1-cyclopropylethyl)-N-(1-(4-(1-i-propyl-6-oxo-1,6-dihydropyrimidin-5-yl)phenyl)cyclopropyl)-1H-pyrazolo[3,4-d]pyrimidine-6-carboxamide], the pIC50 is 8.52.

Consider `CC(C)n1ncc2cnc(C(=O)NC3(c4ccc(-c5cncn(C6(C)CC6)c5=O)cc4)CC3)nc21` [Compound 78], for which the pIC50 is 8.10.

As for `CC(C)Cn1cncc(-c2ccc(C3(NC(=O)c4ncc5cnn(C(C)C)c5n4)CC3)cc2)c1=O` [Compound 45], the pIC50 is 8.70.
